Assay results: ChEMBL document CHEMBL4725370, “Discovery of Proteolysis-Targeting Chimera Molecules that Selectively Degrade the IRAK3 Pseudokinase” (J Med Chem, 2020)
Active and inactive are the calls of the source. The calls are words filed in the database; no cut-off is given here.

Key:
[1] = biological target: Cyclin-dependent kinase 19 (Homo sapiens, UniProt Q9BWU1); experiment: Displacement of polymer supported probe 25 binding to CDK11 in human THP-1 cell lysates preincubated for 45 mins under shaking condition followed by probe addition and measured after 30 mins by mass spectrometry based chemoproteomic analysis; assay type: subcellular; settings: read-out: Kd(app)
[2] = biological target: T1, Interleukin-1 receptor-associated kinase 3 (Homo sapiens, UniProt Q9Y616); experiment: Displacement of polymer supported probe 25 binding to IRAK3 in human THP-1 cell lysates preincubated for 45 mins under shaking condition followed by probe addition and measured after 30 mins by mass spectrometry based chemoproteomic analysis; assay type: subcellular; settings: read-out: Kd(app)
T1 sequence (Q9Y616 whole entry): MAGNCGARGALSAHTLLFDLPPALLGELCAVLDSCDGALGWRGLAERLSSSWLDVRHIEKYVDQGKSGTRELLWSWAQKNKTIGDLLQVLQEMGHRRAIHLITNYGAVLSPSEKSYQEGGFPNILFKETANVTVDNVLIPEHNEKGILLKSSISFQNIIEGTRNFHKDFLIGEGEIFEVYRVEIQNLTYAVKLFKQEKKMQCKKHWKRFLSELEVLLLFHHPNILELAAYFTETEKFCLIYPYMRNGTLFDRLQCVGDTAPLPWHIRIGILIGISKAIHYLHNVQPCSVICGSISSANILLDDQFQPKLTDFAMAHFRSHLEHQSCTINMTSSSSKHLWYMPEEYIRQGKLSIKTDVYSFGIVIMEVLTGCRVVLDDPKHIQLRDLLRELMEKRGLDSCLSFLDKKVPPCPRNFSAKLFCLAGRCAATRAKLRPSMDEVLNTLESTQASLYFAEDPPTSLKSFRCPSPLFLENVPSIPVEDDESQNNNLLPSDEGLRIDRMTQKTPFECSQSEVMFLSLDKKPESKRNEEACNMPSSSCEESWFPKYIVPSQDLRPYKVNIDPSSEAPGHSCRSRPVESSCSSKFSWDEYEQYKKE

[3] = biological target: Cyclin-C/Cyclin-dependent kinase 19 (Homo sapiens, UniProt P24863+Q9BWU1); experiment: Inhibition of CDK11/cyclin C (unknown origin); assay type: protein-complex assay
[4] = biological target: T2, Protein cereblon/Interleukin-1 receptor-associated kinase 3 (Homo sapiens, UniProt Q9Y616+Q96SW2); experiment: Protac activity at CRBN/IRAK3 in human THP1 cells assessed as induction of IRAK3 degradation at 0.1 uM measured after 6 hrs in presence of IRAK3 ligand cis-1-(4-(4-((5-Isopropylpyrrolo[2,1-f][1,2,4]triazin-4-yl)amino)-cyclohexyl)piperazin-1-yl)ethanone by Western blot analysis; assay type: cell-based; settings: THP-1
[5] = tested on: THP-1; experiment: Selectivity ratio of Kd(app) for displacement of polymer supported probe 25 binding to IRAK4 in human THP-1 cell lysates to Kd(app) for displacement of polymer supported probe 25 binding to IRAK3 in human THP-1 cell lysates
[6] = biological target: T3, Interleukin-1 receptor-associated kinase 4 (Homo sapiens, UniProt Q9NWZ3); experiment: Displacement of polymer supported probe 25 binding to IRAK4 in human THP-1 cell lysates preincubated for 45 mins under shaking condition followed by probe addition and measured after 30 mins by mass spectrometry based chemoproteomic analysis; assay type: subcellular; settings: read-out: Kd(app)
T3 sequence (Q9NWZ3 whole entry): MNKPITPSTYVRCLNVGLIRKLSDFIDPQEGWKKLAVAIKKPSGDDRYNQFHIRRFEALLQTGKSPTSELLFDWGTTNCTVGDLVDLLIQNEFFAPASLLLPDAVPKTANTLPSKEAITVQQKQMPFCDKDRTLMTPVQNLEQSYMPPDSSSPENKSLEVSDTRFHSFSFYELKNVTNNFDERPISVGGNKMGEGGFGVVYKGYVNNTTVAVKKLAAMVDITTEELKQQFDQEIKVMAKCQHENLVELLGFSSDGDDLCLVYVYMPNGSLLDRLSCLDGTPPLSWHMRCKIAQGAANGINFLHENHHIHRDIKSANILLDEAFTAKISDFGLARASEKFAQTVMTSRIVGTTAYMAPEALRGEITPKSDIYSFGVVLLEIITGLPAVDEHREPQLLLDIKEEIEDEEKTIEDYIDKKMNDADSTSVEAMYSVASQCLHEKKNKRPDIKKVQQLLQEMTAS

[7] = biological target: T2, Protein cereblon/Interleukin-1 receptor-associated kinase 3; experiment: Protac activity at CRBN/IRAK3 in human THP1 cells assessed as induction of IRAK3 degradation at 0.1 uM measured after 24 hrs by Western blot analysis; assay type: cell-based; settings: THP-1
[8] = biological target: Interleukin-1 receptor-associated kinase 3 (Homo sapiens) (UniProt Q9Y616); experiment: Inhibition of IRAK3 (unknown origin) at 0.1 uM relative to control
[9] = biological target: T2, Protein cereblon/Interleukin-1 receptor-associated kinase 3; experiment: Protac activity at CRBN/IRAK3 in human THP1 cells assessed as induction of IRAK3 degradation at 0.1 uM measured after 6 hrs in presence of proteasome inhibitor MG132 by Western blot analysis; assay type: cell-based; settings: THP-1
[10] = biological target: BDNF/NT-3 growth factors receptor (Homo sapiens) (UniProt Q16620); experiment: Inhibition of NTRK2 (unknown origin) at 0.1 uM relative to control
[11] = biological target: T2, Protein cereblon/Interleukin-1 receptor-associated kinase 3; experiment: Protac activity at CRBN/IRAK3 in human PBMC derived primary macrophages assessed as induction of IRAK3 degradation at 0.3 uM preincubated for 8 hrs followed by LPS-stimulation and measured after 8 to 32 hrs by Western blot analysis; assay type: tissue-based; settings: Primary macrophage
[12] = biological target: CDK8/Cyclin C (Homo sapiens) (UniProt P49336+P24863); experiment: Inhibition of CDK8/cyclin C (unknown origin) at 0.1 uM relative to control; assay type: protein-complex assay

T2 sequence (Q96SW2 whole entry, looked up, one chain of several): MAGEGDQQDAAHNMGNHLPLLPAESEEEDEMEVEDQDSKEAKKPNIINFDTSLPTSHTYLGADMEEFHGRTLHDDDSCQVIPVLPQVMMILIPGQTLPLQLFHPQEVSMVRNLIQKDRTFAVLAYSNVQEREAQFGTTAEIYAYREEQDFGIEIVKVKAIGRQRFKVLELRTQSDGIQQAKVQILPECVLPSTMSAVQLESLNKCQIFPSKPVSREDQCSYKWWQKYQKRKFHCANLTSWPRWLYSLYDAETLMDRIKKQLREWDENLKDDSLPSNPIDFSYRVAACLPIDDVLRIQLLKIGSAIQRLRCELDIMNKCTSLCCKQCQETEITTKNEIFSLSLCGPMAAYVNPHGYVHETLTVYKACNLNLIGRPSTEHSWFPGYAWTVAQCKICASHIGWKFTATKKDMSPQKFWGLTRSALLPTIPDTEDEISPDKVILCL
BDNF/NT-3 growth factors receptor (Homo sapiens), sequence (Q16620 32-822 limits assumed): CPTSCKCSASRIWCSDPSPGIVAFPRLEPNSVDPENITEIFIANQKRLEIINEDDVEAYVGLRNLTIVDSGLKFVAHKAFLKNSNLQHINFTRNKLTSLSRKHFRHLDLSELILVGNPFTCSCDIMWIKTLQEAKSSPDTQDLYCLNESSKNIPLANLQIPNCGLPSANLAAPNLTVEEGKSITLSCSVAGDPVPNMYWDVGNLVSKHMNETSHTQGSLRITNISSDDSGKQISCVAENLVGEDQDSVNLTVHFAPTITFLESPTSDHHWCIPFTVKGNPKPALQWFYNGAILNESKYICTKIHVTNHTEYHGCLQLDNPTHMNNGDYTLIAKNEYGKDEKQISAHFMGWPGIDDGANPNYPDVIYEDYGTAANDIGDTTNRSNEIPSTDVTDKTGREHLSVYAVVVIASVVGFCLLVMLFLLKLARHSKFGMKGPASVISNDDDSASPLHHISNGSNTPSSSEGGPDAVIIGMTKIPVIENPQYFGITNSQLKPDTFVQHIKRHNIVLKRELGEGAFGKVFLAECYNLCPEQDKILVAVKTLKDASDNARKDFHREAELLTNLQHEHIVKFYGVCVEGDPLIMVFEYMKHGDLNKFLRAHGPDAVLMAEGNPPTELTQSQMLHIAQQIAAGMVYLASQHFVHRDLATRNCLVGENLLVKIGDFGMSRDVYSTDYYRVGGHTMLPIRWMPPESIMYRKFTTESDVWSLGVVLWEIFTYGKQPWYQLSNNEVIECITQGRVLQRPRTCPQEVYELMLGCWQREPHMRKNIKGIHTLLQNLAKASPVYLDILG
Cyclin-C/Cyclin-dependent kinase 19, sequence (Q9BWU1 whole entry): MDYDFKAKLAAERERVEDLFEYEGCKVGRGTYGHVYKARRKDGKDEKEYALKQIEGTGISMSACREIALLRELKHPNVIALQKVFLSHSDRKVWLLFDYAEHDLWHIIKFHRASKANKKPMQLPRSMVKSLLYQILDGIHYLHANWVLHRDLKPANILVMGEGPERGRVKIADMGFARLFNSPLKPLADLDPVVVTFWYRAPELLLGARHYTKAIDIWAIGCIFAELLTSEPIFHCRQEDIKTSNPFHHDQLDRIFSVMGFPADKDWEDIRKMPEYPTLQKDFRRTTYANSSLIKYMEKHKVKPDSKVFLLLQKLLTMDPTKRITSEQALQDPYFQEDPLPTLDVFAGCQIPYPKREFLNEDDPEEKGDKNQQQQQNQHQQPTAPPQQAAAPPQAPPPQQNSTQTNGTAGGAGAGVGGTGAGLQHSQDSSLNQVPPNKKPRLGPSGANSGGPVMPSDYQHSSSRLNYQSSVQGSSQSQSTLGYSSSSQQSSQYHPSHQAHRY
Cyclin-C/Cyclin-dependent kinase 19, sequence (P24863 whole entry): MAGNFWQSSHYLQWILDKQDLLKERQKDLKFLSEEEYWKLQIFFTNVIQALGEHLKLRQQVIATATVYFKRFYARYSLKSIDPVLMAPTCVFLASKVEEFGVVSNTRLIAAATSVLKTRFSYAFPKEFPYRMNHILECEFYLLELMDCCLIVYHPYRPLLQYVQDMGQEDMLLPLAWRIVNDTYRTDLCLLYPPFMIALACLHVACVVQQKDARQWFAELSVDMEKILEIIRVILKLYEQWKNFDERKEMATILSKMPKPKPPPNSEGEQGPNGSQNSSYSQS
Cyclin-dependent kinase 19, sequence (Q9BWU1 whole entry): as the sequence (Q9BWU1 whole entry) above

Kd [1]: > 30 µM
Kd [2]: 0.034 µM
IC50 [3]: 0.016 µM
Activity [4]: inactive
Kd [6]: 3.6 µM
Activity [7]: Active
inhibition [8]: 93%
Activity [9]: inactive
inhibition [10]: 45%
Activity [11]: Active
inhibition [12]: 69%
Compound: CC(C)c1ccn2ncnc(N[C@H]3CC[C@@H](N4CCN(C(=O)CCC(=O)N5CCC(CCN6CCN(c7ccc8c(c7)C(=O)N(C7CCC(=O)NC7=O)C8=O)CC6)CC5)CC4)CC3)c12 (some centres not stated)
Selectivity ratio [5]: 105
